Data: the supplement of paper PMC10307832

How the values were obtained:
Test in all cases: relative viability (nuclei count vs DMSO), 5 days (fraction); higher = more cells survive
Gemcitabine + Linsitinib = compound: Nc1ccn([C@@H]2O[C@H](CO)[C@@H](O)C2(F)F)c(=O)n1 [Gemcitabine] + C[C@]1(O)C[C@@H](c2nc(-c3ccc4ccc(-c5ccccc5)nc4c3)c3c(N)nccn32)C1 [Linsitinib] (partner 1 µM)
Method in brief: (§1)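 Dosing by pin tool came one day after lung cancer cell lines were seeded in 1536-well plates, using either one drug or a fixed anchor-drug dose plus five library-drug doses (not always all listed) in √10 steps. After 5 days, nuclei were counted on 4× images. Relative viability is treated-well nuclei count divided by vehicle-well nuclei count, and values are medians of duplicate plates.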

Gemcitabine + Pemetrexed = compound: Nc1ccn([C@@H]2O[C@H](CO)[C@@H](O)C2(F)F)c(=O)n1 [Gemcitabine] + Nc1nc2[nH]cc(CCc3ccc(C(=O)N[C@@H](CCC(=O)O)C(=O)O)cc3)c2c(=O)[nH]1 [Pemetrexed] (partner 0.2 µM)
Method in brief: as §1

Gemcitabine + Vorinostat = compound: Nc1ccn([C@@H]2O[C@H](CO)[C@@H](O)C2(F)F)c(=O)n1 [Gemcitabine] + O=C(CCCCCCC(=O)Nc1ccccc1)NO [Vorinostat] (partner 1 µM)
Method in brief: as §1

Gemcitabine + Olaparib = compound: Nc1ccn([C@@H]2O[C@H](CO)[C@@H](O)C2(F)F)c(=O)n1 [Gemcitabine] + O=C(c1cc(Cc2n[nH]c(=O)c3ccccc23)ccc1F)N1CCN(C(=O)C2CC2)CC1 [Olaparib] (partner 8 µM)
Method in brief: as §1

Cell Line | relative viability (Gemcitabine + Linsitinib; first compound 0.001 µM) | relative viability (Gemcitabine + Linsitinib; first compound 0.003162 µM) | relative viability (Gemcitabine + Linsitinib; first compound 0.01 µM) | relative viability (Gemcitabine + Linsitinib; first compound 0.03162 µM) | relative viability (Gemcitabine + Linsitinib; first compound 0.1 µM) | relative viability (Gemcitabine + Pemetrexed; first compound 0.001 µM) | relative viability (Gemcitabine + Pemetrexed; first compound 0.003162 µM) | relative viability (Gemcitabine + Pemetrexed; first compound 0.01 µM) | relative viability (Gemcitabine + Pemetrexed; first compound 0.03162 µM) | relative viability (Gemcitabine + Pemetrexed; first compound 0.1 µM) | relative viability (Gemcitabine + Vorinostat; first compound 0.001 µM) | relative viability (Gemcitabine + Vorinostat; first compound 0.003162 µM) | relative viability (Gemcitabine + Vorinostat; first compound 0.01 µM) | relative viability (Gemcitabine + Vorinostat; first compound 0.03162 µM) | relative viability (Gemcitabine + Vorinostat; first compound 0.1 µM) | relative viability (Gemcitabine + Olaparib; first compound 0.001 µM) | relative viability (Gemcitabine + Olaparib; first compound 0.003162 µM) | relative viability (Gemcitabine + Olaparib; first compound 0.01 µM) | relative viability (Gemcitabine + Olaparib; first compound 0.03162 µM) | relative viability (Gemcitabine + Olaparib; first compound 0.1 µM)
NCI-H650 | 0.634 | 0.282 | 0.21 | 0.153 | 0.147 | 0.865 | 0.555 | 0.222 | 0.128 | 0.12 | 0.38 | 0.25 | 0.15 | 0.121 | 0.111 | 0.364 | 0.241 | 0.113 | 0.115 | 0.102
NCI-H661 | 0.534 | 0.406 | 0.245 | 0.198 | 0.15 | 0.895 | 0.998 | 0.891 | 0.299 | 0.216 | 0.766 | 0.725 | 0.598 | 0.303 | 0.234 | 0.78 | 0.783 | 0.655 | 0.274 | 0.232
NCI-H838 | 1.05 | 1.12 | 0.933 | 0.328 | 0.14 | 0.251 | 0.262 | 0.24 | 0.241 | 0.149 | 0.77 | 0.777 | 0.66 | 0.479 | 0.168 | 0.787 | 0.842 | 0.534 | 0.282 | 0.12
NCI-H1355 | 0.816 | 0.606 | 0.221 | 0.123 | 0.129 | 1 | 0.885 | 0.455 | 0.173 | 0.162 | 0.632 | 0.473 | 0.274 | 0.166 | 0.146 | 0.667 | 0.441 | 0.141 | 0.157 | 0.151
NCI-H1395 | 1.02 | 0.814 | 0.565 | 0.407 | 0.334 | 0.91 | 0.622 | 0.335 | 0.296 | 0.312 | 0.593 | 0.517 | 0.384 | 0.331 | 0.345 | 0.438 | 0.452 | 0.423 | 0.351 | 0.34
NCI-H1437 | 1.05 | 0.875 | 0.406 | 0.213 | 0.105 | 0.285 | 0.325 | 0.27 | 0.276 | 0.254 | 0.749 | 0.792 | 0.645 | 0.398 | 0.232 | 0.622 | 0.781 | 0.488 | 0.325 | 0.225
NCI-H1651 | 0.884 | 1.04 | 0.69 | 0.211 | 0.0842 | 0.561 | 0.575 | 0.584 | 0.362 | 0.0991 | 0.555 | 0.537 | 0.548 | 0.301 | 0.115 | 0.182 | 0.193 | 0.187 | 0.138 | 0.075
NCI-H1666 | 0.789 | 0.882 | 0.435 | 0.286 | 0.285 | 0.88 | 0.842 | 0.842 | 0.699 | 0.52 | 1.02 | 0.955 | 0.963 | 0.927 | 0.576 | 0.777 | 0.707 | 0.748 | 0.76 | 0.597
NCI-H1734 | 0.909 | 0.806 | 0.457 | 0.129 | 0.13 | 0.408 | 0.377 | 0.197 | 0.139 | 0.136 | 0.746 | 0.626 | 0.119 | 0.114 | 0.0915 | 0.535 | 0.348 | 0.183 | 0.111 | 0.102
NCI-H1755 | 0.957 | 1.06 | 0.975 | 0.347 | 0.259 | 0.414 | 0.47 | 0.319 | 0.376 | 0.355 | 0.804 | 0.751 | 0.599 | 0.469 | 0.313 | 0.872 | 0.887 | 0.787 | 0.425 | 0.278
NCI-H1793 | 1 | 0.857 | 0.539 | 0.16 | 0.135 | 1.09 | 0.98 | 0.406 | 0.139 | 0.141 | 0.985 | 0.62 | 0.152 | 0.148 | 0.106 | 0.807 | 0.93 | 0.159 | 0.137 | 0.105
NCI-H1915 | 1.12 | 1.09 | 1.11 | 0.92 | 0.442 | 0.484 | 0.516 | 0.453 | 0.513 | 0.475 | 0.49 | 0.5 | 0.45 | 0.391 | 0.258 | 0.246 | 0.255 | 0.258 | 0.233 | 0.192
NCI-H1944 | 1.24 | 1.15 | 1.17 | 0.509 | 0.259 | 0.586 | 0.601 | 0.554 | 0.254 | 0.112 | 0.59 | 0.572 | 0.321 | 0.192 | 0.131 | 0.459 | 0.469 | 0.358 | 0.21 | 0.134
NCI-H1975 | 1.1 | 1.04 | 0.586 | 0.218 | 0.191 | 0.286 | 0.29 | 0.306 | 0.178 | 0.173 | 0.741 | 0.714 | 0.372 | 0.18 | 0.186 | 0.755 | 0.78 | 0.433 | 0.179 | 0.139
NCI-H1993 | 0.689 | 0.723 | 0.622 | 0.599 | 0.579 | 0.545 | 0.513 | 0.516 | 1.17 | 0.409 | 0.723 | 0.904 | 0.547 | 0.471 | 0.317 | 1.01 | 0.908 | 0.519 | 0.412 | 0.428
